Source: patent US12018016B2, “Aryl sulfonyl (hydroxy) piperidines as CCR6 inhibitors” (CHEMOCENTRYX, INC., priority 2021, dated 2024)

Target: T1, human CCR6 (Homo sapiens, UniProt P51684)
T1 construct: expressed in transfected cells; host or cells: Ba/F3 cells (mouse pro-B line)
T1 sequence (P51684 1-374): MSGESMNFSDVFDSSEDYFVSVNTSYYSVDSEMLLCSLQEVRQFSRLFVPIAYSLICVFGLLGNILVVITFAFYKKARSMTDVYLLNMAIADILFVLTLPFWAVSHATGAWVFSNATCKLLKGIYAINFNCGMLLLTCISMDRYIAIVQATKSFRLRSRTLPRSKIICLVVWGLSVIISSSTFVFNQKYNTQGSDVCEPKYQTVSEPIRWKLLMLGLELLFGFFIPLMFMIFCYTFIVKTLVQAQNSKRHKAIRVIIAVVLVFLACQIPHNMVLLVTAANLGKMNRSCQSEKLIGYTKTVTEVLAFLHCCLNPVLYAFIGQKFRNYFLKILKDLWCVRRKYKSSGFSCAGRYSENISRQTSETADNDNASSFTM
Assay: Migration assay (chemotaxis, ChemoTX)
Assay type: cell-based
Details: hCCR6-transfected Ba/F3 cells in human serum, migration to recombinant human CCL20 10 nM, 37° C. 45 minutes; read-out: Potency (IC50 value in the migration assay)
Text: A chemotaxis assay can be used to determine the efficacy of potential receptor antagonists at blocking the migration mediated through chemokine receptors, such as CCR6. This assay is routinely performed using the ChemoTX® microchamber system with a 5-μm pore-sized polycarbonate membrane. Chemokine receptor-expressing cells are required for such an assay. In this case, Ba/F3 cells (Palacios et al., Nature, 309:126, 1984) transfected with the gene for human CCR6 under control of the CMV promotor were used. To begin such an assay, hCCR6-transfected Ba/F3 cells are first grown for 24 hr in medium supplemented with sodium butyrate, which increases CCR6 transcription via the CMV promotor. The prepared Ba/F3 cells, are collected by centrifugation at 400×g at room temperature, then suspended at 4 million/ml in human serum. The compound being tested is serially diluted from a maximum final concentration of 1 μM (or an equivalent volume of its solvent (DMSO)) and is then added to the cell/serum mixture. Separately, recombinant human CCL20 (MIP-3α/LARC) at its EC50 concentration (10 nM) is placed in the lower wells of the ChemoTX® plate. The 5-μm (pore size) polycarbonate membrane is placed onto the plate, and 20 μL of the cell/compound mixture is transferred onto each well of the membrane. The plates are incubated at 37° C. for 45 minutes, after which the polycarbonate membranes are removed and 5 μl of the DNA-intercalating dye CyQUANT (Invitrogen, Carlsbad, CA) is added to the lower wells. The amount of fluorescence, corresponding to the number of migrated cells, is measured using a Spectrafluor Plus plate reader (TECAN, San Jose, CA).

Row | Structure (SMILES) | IC50
1 | O=S(=O)(c1ccc(-c2ccnc(N3CC[C@@H](O)C3)c2)cc1)N1CC[C@@H](Nc2ccc(C(F)(F)F)cn2)[C@@H](O)C1 [Compound 134] | < 1 nM
2 | O=S(=O)(c1ccc(-c2ccnc(N3CC4(COC4)C3)c2)cc1)N1CC[C@@H](Nc2ccc(C(F)(F)F)cn2)[C@@H](O)C1 [Compound 135] | < 1 nM
3 | COC1CN(c2cc(-c3ccc(S(=O)(=O)N4CC[C@@H](Nc5ccc(C(F)(F)F)cn5)[C@@H](O)C4)cc3)ccn2)C1 [Compound 136] | 1 to 10 nM
4 | O=S(=O)(c1ccc(-c2ccnc(N3CC(O)C3)c2)cc1)N1CC[C@@H](Nc2ccc(C(F)(F)F)cn2)[C@@H](O)C1 [Compound 137] | < 1 nM
5 | CN(C)CCN(C)c1cc(-c2ccc(S(=O)(=O)N3CC[C@@H](Nc4ccc(C(F)(F)F)cn4)[C@@H](O)C3)cc2)ccn1 [Compound 138] | < 1 nM
6 | O=S(=O)(c1ccc(-c2ccnc(N3CCC3)c2)cc1)N1CC[C@@H](Nc2ccc(C(F)(F)F)cn2)[C@@H](O)C1 [Compound 139] | < 1 nM
7 | O=S(=O)(c1ccc(-c2ccnc(NC3CCC3)c2)cc1)N1CC[C@@H](Nc2ccc(C(F)(F)F)cn2)[C@@H](O)C1 [Compound 140] | < 1 nM
8 | O=S(=O)(c1ccc(-c2ccnc(N3CC4(CNC4)C3)c2)cc1)N1CC[C@@H](Nc2ccc(C(F)(F)F)cn2)[C@@H](O)C1 [Compound 141] | 1 to 10 nM
9 | CN1CC2(C1)CN(c1cc(-c3ccc(S(=O)(=O)N4CC[C@@H](Nc5ccc(C(F)(F)F)cn5)[C@@H](O)C4)cc3)ccn1)C2 [Compound 142] | 1 to 10 nM
10 | CN(C)C1CCN(c2cc(-c3ccc(S(=O)(=O)N4CC[C@@H](Nc5ccc(C(F)(F)F)cn5)[C@@H](O)C4)cc3)ccn2)CC1 [Compound 143] | 1 to 10 nM
11 | O=S(=O)(c1ccc(-c2ccnc(N3CCCCC3)c2)cc1)N1CC[C@@H](Nc2ccc(C(F)(F)F)cn2)[C@@H](O)C1 [Compound 145] | < 1 nM
12 | O=S(=O)(c1ccc(-c2ccnc(N3CCOCC3)c2)cc1)N1CC[C@@H](Nc2ccc(C(F)(F)F)cn2)[C@@H](O)C1 [Compound 146] | < 1 nM
13 | Cc1cc(C(N)=O)ncc1-c1ccc(S(=O)(=O)N2CC[C@@H](Nc3ccc(C(F)(F)F)cn3)[C@@H](O)C2)cc1 [Compound 147] | < 1 nM
14 | Cc1c(-c2ccc(S(=O)(=O)N3CC[C@@H](Nc4ccc(C(F)(F)F)cn4)[C@@H](O)C3)cc2)cnc(N)c1C [Compound 148] | < 1 nM
15 | N#Cc1cnccc1-c1ccc(S(=O)(=O)N2CC[C@@H](Nc3ccc(C(F)(F)F)cn3)[C@@H](O)C2)cc1 [Compound 149] | 1 to 10 nM
16 | COc1nccc(-c2ccc(S(=O)(=O)N3CC[C@@H](Nc4ccc(C(F)(F)F)cn4)[C@@H](O)C3)cc2)c1OC [Compound 150] | < 1 nM
17 | COc1cnccc1-c1ccc(S(=O)(=O)N2CC[C@@H](Nc3ccc(C(F)(F)F)cn3)[C@@H](O)C2)cc1 [Compound 151] | 1 to 10 nM
18 | Cc1cncc(-c2ccc(S(=O)(=O)N3CC[C@@H](Nc4ccc(C(F)(F)F)cn4)[C@@H](O)C3)cc2)c1 [Compound 152] | < 1 nM
19 | O=S(=O)(c1ccc(-c2ccncc2CO)cc1)N1CC[C@@H](Nc2ccc(C(F)(F)F)cn2)[C@@H](O)C1 [Compound 153] | 1 to 10 nM
20 | COc1ccc(-c2ccc(S(=O)(=O)N3CC[C@@H](Nc4ccc(C(F)(F)F)cn4)[C@@H](O)C3)cc2)cn1 [Compound 154] | 1 to 10 nM
21 | COc1nccc(-c2ccc(S(=O)(=O)N3CC[C@@H](Nc4ccc(C(F)(F)F)cn4)[C@@H](O)C3)cc2)c1C [Compound 155] | < 1 nM
22 | COc1cnc(C)cc1-c1ccc(S(=O)(=O)N2CC[C@@H](Nc3ccc(C(F)(F)F)cn3)[C@@H](O)C2)cc1 [Compound 156] | < 1 nM
23 | COc1c(-c2ccc(S(=O)(=O)N3CC[C@@H](Nc4ccc(C(F)(F)F)cn4)[C@@H](O)C3)cc2)ccnc1C [Compound 157] | < 1 nM
24 | O=S(=O)(c1ccc(-c2ccnc(N3CCNCC3)c2)cc1)N1CC[C@@H](Nc2ccc(C(F)(F)F)cn2)[C@@H](O)C1 [Compound 158] | 1 to 10 nM
25 | O=C1Nc2ncc(-c3ccc(S(=O)(=O)N4CC[C@@H](Nc5ccc(C(F)(F)F)cn5)[C@@H](O)C4)cc3)cc2C12CCC2 [Compound 159] | < 1 nM

Row | Structure (SMILES) | IC50
26 | Nc1ccc(-c2ccc(S(=O)(=O)N3CC[C@@H](Nc4ccc(C(F)(F)F)cn4)[C@@H](O)C3)cc2)cn1 [Compound 160] | < 1 nM
27 | O=S(=O)(c1ccc(-c2ccncc2)cc1)N1CC[C@@H](Nc2ccc(C(F)(F)F)cn2)[C@@H](O)C1 [Compound 161] | < 1 nM
28 | O=S(=O)(c1ccc(-c2cccnc2)cc1)N1CC[C@@H](Nc2ccc(C(F)(F)F)cn2)[C@@H](O)C1 [Compound 162] | < 1 nM
29 | Cc1cc(-c2ccc(S(=O)(=O)N3CC[C@@H](Nc4ccc(C(F)(F)F)cn4)[C@@H](O)C3)cc2)ccn1 [Compound 163] | < 1 nM
30 | Cc1cnccc1-c1ccc(S(=O)(=O)N2CC[C@@H](Nc3ccc(C(F)(F)F)cn3)[C@@H](O)C2)cc1 [Compound 164] | < 1 nM
31 | COc1cc(-c2ccc(S(=O)(=O)N3CC[C@@H](Nc4ccc(C(F)(F)F)cn4)[C@@H](O)C3)cc2)ccn1 [Compound 165] | 1 to 10 nM
32 | Cc1c(-c2ccc(S(=O)(=O)N3CC[C@@H](Nc4ccc(C(F)(F)F)cn4)[C@@H](O)C3)cc2)ccnc1N [Compound 166] | < 1 nM
33 | O=C1C[C@H](Nc2ccc(-c3ccc(S(=O)(=O)N4CC[C@@H](Nc5ccc(C(F)(F)F)cn5)[C@@H](O)C4)cc3)cn2)CN1 [Compound 167] | < 1 nM
34 | O=C1C[C@@H](Nc2ccc(-c3ccc(S(=O)(=O)N4CC[C@@H](Nc5ccc(C(F)(F)F)cn5)[C@@H](O)C4)cc3)cn2)CN1 [Compound 168] | < 1 nM
35 | O=C1NCC[C@H]1Nc1ccc(-c2ccc(S(=O)(=O)N3CC[C@@H](Nc4ccc(C(F)(F)F)cn4)[C@@H](O)C3)cc2)cn1 [Compound 169] | < 1 nM
36 | O=C1NCC[C@@H]1Nc1ccc(-c2ccc(S(=O)(=O)N3CC[C@@H](Nc4ccc(C(F)(F)F)cn4)[C@@H](O)C3)cc2)cn1 [Compound 170] | < 1 nM
37 | O=S(=O)(c1ccc(-c2ccc(N3CCC(O)CC3)nc2)cc1)N1CC[C@@H](Nc2ccc(C(F)(F)F)cn2)[C@@H](O)C1 [Compound 171] | < 1 nM
38 | O=S(=O)(c1ccc(-c2ccc(N3CCCC3)nc2)cc1)N1CC[C@@H](Nc2ccc(C(F)(F)F)cn2)[C@@H](O)C1 [Compound 172] | < 1 nM
39 | O=C1CN(c2cc(-c3ccc(S(=O)(=O)N4CC[C@@H](Nc5ccc(C(F)(F)F)cn5)[C@@H](O)C4)cc3)ccn2)CCN1 [Compound 173] | < 1 nM
40 | O=S(=O)(c1ccc(-c2ccc(N3CC(O)C3)nc2)cc1)N1CC[C@@H](Nc2ccc(C(F)(F)F)cn2)[C@@H](O)C1 [Compound 174] | < 1 nM
41 | O=S(=O)(c1ccc(-c2ccc(N3CC[C@H](O)C3)nc2)cc1)N1CC[C@@H](Nc2ccc(C(F)(F)F)cn2)[C@@H](O)C1 [Compound 175] | < 1 nM
42 | O=S(=O)(c1ccc(-c2ccc(N3CC[C@@H](O)C3)nc2)cc1)N1CC[C@@H](Nc2ccc(C(F)(F)F)cn2)[C@@H](O)C1 [Compound 176] | < 1 nM
43 | CN(C)C1CN(c2cc(-c3ccc(S(=O)(=O)N4CC[C@@H](Nc5ccc(C(F)(F)F)cn5)[C@@H](O)C4)cc3)ccn2)C1 [Compound 177] | 1 to 10 nM
44 | O=C1CN(c2ccc(-c3ccc(S(=O)(=O)N4CC[C@@H](Nc5ccc(C(F)(F)F)cn5)[C@@H](O)C4)cc3)cn2)CCN1 [Compound 178] | < 1 nM
45 | O=C1CNCCN1c1ccc(-c2ccc(S(=O)(=O)N3CC[C@@H](Nc4ccc(C(F)(F)F)cn4)[C@@H](O)C3)cc2)cn1 [Compound 179] | < 1 nM
46 | O=c1[nH]ncc2ccc(-c3ccc(S(=O)(=O)N4CC[C@@H](Nc5ccc(C(F)(F)F)cn5)[C@@H](O)C4)cc3)cc12 [Compound 180] | < 1 nM
47 | NS(=O)(=O)c1cc(-c2ccc(S(=O)(=O)N3CC[C@@H](Nc4ccc(C(F)(F)F)cn4)[C@@H](O)C3)cc2)ccn1 [Compound 181] | < 1 nM
48 | COc1c(-c2ccc(S(=O)(=O)N3CC[C@@H](Nc4ccc(C(F)(F)F)cn4)[C@@H](O)C3)cc2)ccnc1C(N)=O [Compound 182] | < 1 nM
49 | Cc1ncc(C(N)=O)cc1-c1ccc(S(=O)(=O)N2CC[C@@H](Nc3ccc(C(F)(F)F)cn3)[C@@H](O)C2)cc1 [Compound 183] | < 1 nM
50 | Cc1c(C(N)=O)cncc1-c1ccc(S(=O)(=O)N2CC[C@@H](Nc3ccc(C(F)(F)F)cn3)[C@@H](O)C2)cc1 [Compound 184] | < 1 nM
